Reference: PubChem BioAssay (NCI)
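How tested: cells in 96-well plates exposed to compound for 48 hours at five concentrations. At the GI50, growth is halved. TGI denotes the concentration required for complete inhibition of growth.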

What was measured:
Assay in all cases: NCI tumour cell line growth inhibition, 48 h
A549 NSCLC = test system: A549 NSCLC
HCT-15 colon = test system: HCT-15 colon
IGROV1 ovarian = test system: IGROV1 ovarian
KM12 colon = test system: KM12 colon
M14 melanoma = test system: M14 melanoma
NCI-H23 lung = test system: NCI-H23 lung
SK-MEL-5 melanoma = test system: SK-MEL-5 melanoma
SN12C renal = test system: SN12C renal
T-47D breast = test system: T-47D breast
UACC-257 melanoma = test system: UACC-257 melanoma

Row | Structure (SMILES) | GI50 (A549 NSCLC) | TGI (A549 NSCLC) | GI50 (HCT-15 colon) | TGI (HCT-15 colon) | GI50 (IGROV1 ovarian) | TGI (IGROV1 ovarian) | GI50 (KM12 colon) | TGI (KM12 colon) | GI50 (M14 melanoma) | TGI (M14 melanoma) | GI50 (NCI-H23 lung) | TGI (NCI-H23 lung) | GI50 (SK-MEL-5 melanoma) | TGI (SK-MEL-5 melanoma) | GI50 (SN12C renal) | TGI (SN12C renal) | GI50 (T-47D breast) | TGI (T-47D breast) | GI50 (UACC-257 melanoma) | TGI (UACC-257 melanoma)
1 | COc1ccc(-c2n[nH]nc2-c2csc3ccccc23)cc1OC | 4.52 µM | 70.9 µM | 1.67 µM | 14.7 µM | 4.21 µM | > 100 µM | 2.28 µM | 24.1 µM | 1.95 µM | 15.6 µM | 3.93 µM | 27.9 µM | 2.83 µM | 8.79 µM | 8.8 µM | 79.9 µM | 2.83 µM | 32.6 µM | 10.9 µM | 55.6 µM
2 | COCCOC(=O)C1=C(C)NC2=C(C(=O)CC(c3ccccc3OC)C2)C1c1cccc(O)c1 (stereo unspecified) | 13.1 µM | > 72.2 µM | 19.8 µM | > 61.9 µM | 9.54 µM | 52.4 µM | 11.5 µM | 30 µM | 11.8 µM | 39.5 µM | 14.7 µM | 56.6 µM | 3.54 µM | 16.6 µM | 21.7 µM | > 100 µM | 5.99 µM | 54.3 µM | 8.8 µM | 61.1 µM
3 | CCC(Sc1nnc2c3ccccc3n(CC)c2n1)C(=O)Nc1ccccc1OC (stereo unspecified) | 6.4 µM | > 100 µM | 66.8 µM | > 100 µM | > 93.8 µM | > 100 µM | 91.3 µM | > 100 µM | > 100 µM | > 100 µM | 3.41 µM | > 100 µM | 60.8 µM | > 100 µM | 3.47 µM | > 100 µM | 7.74 µM | > 100 µM | > 100 µM | > 100 µM
4 | O=C1OC(c2ccc(O)c(-c3ccccc3)c2)(c2ccc(O)c(-c3ccccc3)c2)c2c(Cl)c(Cl)c(Cl)c(Cl)c21 |  | > 100 µM |  | > 100 µM |  | > 100 µM |  | > 100 µM |  | > 100 µM |  | > 100 µM |  | > 100 µM |  | > 100 µM |  | > 100 µM |  | > 100 µM
5 | O=C(Nc1cc(C(F)(F)F)ccc1F)Nc1n[nH]c2ccccc12 | > 100 µM | > 100 µM | > 100 µM | > 100 µM | 0.758 µM | > 100 µM | > 100 µM | > 100 µM | > 100 µM | > 100 µM | > 100 µM | > 100 µM | > 100 µM | > 100 µM | > 100 µM | > 100 µM | 0.215 µM | > 100 µM | > 100 µM | > 100 µM
6 | O=C(O)C1C2CC3C(OC(=O)C31)C2Br (stereo unspecified) |  | > 100 µM |  | > 100 µM |  | > 100 µM |  | > 100 µM |  | > 100 µM |  | > 100 µM |  | > 100 µM |  | > 100 µM |  | > 100 µM |  | > 100 µM
7 | CCCCCCCCCCCCCCCc1cc(O)ccc1N | > 100 µM | > 100 µM | 45.8 µM | > 100 µM | 0.416 µM | 6.61 µM | 7.43 µM | > 100 µM | > 100 µM | > 100 µM | > 96.2 µM | > 100 µM | > 100 µM | > 100 µM | > 20.1 µM | > 100 µM | 0.132 µM | 1.76 µM | 11.3 µM | > 80.1 µM
8 | CCOC(=O)CC1(O)C=CC(=O)C=C1 | 4.95 µg/mL | 16.4 µg/mL | 0.313 µg/mL | 0.596 µg/mL | 0.885 µg/mL | 2.19 µg/mL | 0.33 µg/mL | 0.738 µg/mL | 1.67 µg/mL | 4.35 µg/mL | 0.541 µg/mL | 1.75 µg/mL | 1.96 µg/mL | 3.86 µg/mL | 2.46 µg/mL | 4.6 µg/mL | 0.667 µg/mL | 2.31 µg/mL | 0.883 µg/mL | 2.09 µg/mL
9 | COc1ccc2c(c1)CC[C@@H]1[C@@H]2CC[C@@]2(C)[C@H]1CC1(CCCCC1)[C@@H]2O | 5.58 µM | 26.8 µM | 2.59 µM | 10.2 µM | 30.9 µM | 80.7 µM | 7.91 µM | 27.3 µM | 13.8 µM | 31.4 µM | 18.6 µM | 35.9 µM | 8.06 µM | 20.4 µM | 20.4 µM | 39 µM | 15.7 µM | 39.7 µM | 23.6 µM | 47.2 µM
10 | COc1ccc2c(c1)c(C1(c3cn(C)c4ccc(OC)cc34)C(=O)Nc3ccc(F)cc31)cn2C |  |  | 5 µM | > 100 µM | 4.26 µM | > 100 µM | 5.63 µM | > 100 µM | 4.19 µM | 68.8 µM | 6.06 µM | > 100 µM | 5.64 µM | 18.9 µM | 4.82 µM | 31.5 µM | 4.75 µM | > 100 µM | 5.28 µM | > 100 µM
11 | CCN(CC)CCOc1ccc(/C=C2\CC3C4CCC5=CC(=O)CC[C@]5(C)C4CC[C@]3(C)C2=O)cc1OC (stereo partly specified) | 4.54 µM | 58.3 µM | 2.82 µM | 10.5 µM | 22.7 µM | > 100 µM | 1.93 µM | 3.85 µM | 2.08 µM | 3.96 µM | 3.17 µM | 11 µM | 1.63 µM | 3.28 µM | 2.6 µM | 7.06 µM | 3.14 µM | 17.1 µM | 3.43 µM | 11.1 µM
12 | O=C1C=C(Nc2ccccc2C(=O)CC(=O)C(=O)Nc2cccc(C(F)(F)F)c2)c2ccccc2C1=O |  | > 89.8 µM |  | > 100 µM |  | > 100 µM |  | > 95.9 µM |  | 31.7 µM |  | 30.5 µM |  | 30.8 µM |  | 36.3 µM |  | > 100 µM |  | 31.8 µM
13 | COc1ccc(O)c(C(=O)c2ccc(C(=O)O[C@@H]3CCCNC[C@H]3NC(=O)c3ccncc3)cc2)c1F | 0.592 µM | > 25 µM | 0.918 µM | > 25 µM | 0.493 µM | > 25 µM | 0.8 µM | > 25 µM | 1.2 µM | > 25 µM | 1.91 µM | > 25 µM | 0.541 µM | 3.15 µM | 1.34 µM | > 25 µM | 1.36 µM | > 25 µM |  | 
14 | Brc1ccc([I+]c2ccc(Br)cc2)cc1 | 5.2 µM | 20.2 µM | 8.3 µM | 42.7 µM | 1.06 µM | 6.8 µM | 1.29 µM | 2.89 µM | 1.53 µM | 5.14 µM | 1.11 µM | 4.2 µM | 0.545 µM | 1.83 µM | 1.6 µM | 4.26 µM | 1.78 µM | 11 µM | 2.06 µM | 5.53 µM
15 | COc1cc(OC)c2c(=O)c(O)c(-c3ccc(OC)c(OC)c3)oc2c1 |  | > 100 µM |  | > 100 µM |  | > 31.6 µM |  | > 100 µM |  | > 31.6 µM |  | > 100 µM |  | > 100 µM |  | > 100 µM |  | 31.4 µM |  | > 100 µM
16 | CO[C@@H]1[C@@H](OC2OC(C)C(OC3CC(C)(O)C(OC(=O)CC(C)C)C(C)O3)C(N(C)C)C2O)[C@@H](CC=O)C[C@@H](C)C(=O)/C=C/C2O[C@H]2C[C@@H](C)OC(=O)C[C@H]1OC(C)=O (stereo partly specified) |  | > 100 µM |  | 36 µM |  | 61 µM |  | 32.2 µM |  | 30 µM |  | 45.8 µM |  | 32.9 µM |  | 46.2 µM |  | 84.4 µM |  | 34 µM
17 | O=C(Nc1ccc(Br)cc1)Nc1n[nH]c2ccccc12 | > 62.7 µM | > 100 µM | 17.3 µM | > 100 µM | 17.5 µM | > 100 µM | > 76.4 µM | > 100 µM | > 100 µM | > 100 µM | > 100 µM | > 100 µM | > 88.7 µM | > 100 µM | > 100 µM | > 100 µM | > 100 µM | > 100 µM | > 100 µM | > 100 µM
18 | CCCCCCCCCCCCCCCC(=O)OCC(O)C1OC(=O)C(O)=C1O (stereo unspecified) |  | 42.9 µM |  | > 100 µM |  | 84.5 µM |  | 53 µM |  | 36.2 µM |  | 96.3 µM |  | > 100 µM |  | 96.9 µM |  | > 100 µM |  | > 100 µM
19 | COc1cc(CSc2nc3ccc(C)cc3c(=O)n2Cc2ccccc2)cc(OC)c1OC | 1.72 µM | > 100 µM | 0.773 µM | > 100 µM | 3.47 µM | > 100 µM | 1.08 µM | > 100 µM | 3.08 µM | > 100 µM | 4.4 µM | > 100 µM | 1.45 µM | 12.8 µM | 6.53 µM | > 100 µM | 2.98 µM | 32.6 µM | 6.73 µM | > 100 µM
20 | CN1C(=O)CNC(=O)[C@H](NC(=O)c2nc3ccccc3cc2O)CSSC[C@H]1C(=O)NCCc1nc2ccccc2cc1O | 32.5 µM | > 100 µM | 20.7 µM | > 62.5 µM | 32 µM | > 100 µM | 0.96 µM | 47.7 µM | 1.03 µM | 35.4 µM | 13.6 µM | 60.9 µM | 3.05 µM | 12.7 µM | 22.4 µM | > 63.4 µM | 8.09 µM | 29.7 µM | 17.1 µM | 72.9 µM
21 | CC(=O)O[C@@H]1CO[C@H]2O[C@H]3[C@@H](C(C=O)=C[C@H](O)[C@@H]4C5=C(C(C)C)CC[C@]5(C)CC[C@@]34C)[C@@]2(O)C1=O |  | 5.57 µM |  | 0.687 µM |  | 0.714 µM |  | 1.46 µM |  | 0.723 µM |  | 0.893 µM |  | 0.577 µM |  | 0.448 µM |  | 0.378 µM |  | 0.629 µM
